Assay results: patent US20160264570A1, “METHOD OF BLOCKING TRANSMISSION OF MALARIAL PARASITE” (THE UNITED STATES OF AMERICA, AS REPRESENTED BY THE …, priority 2013, published 2016)
Where two headings read alike, the source gives them in different places. Starred links: 1 amine or outer side, 2 acyl side, 3 side chain; linkers in the order of their positions; H or OH if unused. Positions of bridges follow the written chain, without caps; N, C: chain ends. Non-standard residues stand in square brackets, D forms with d. Residues, ends and D or L forms follow the SMILES beside them. Chains are numbered I, II in the order given. Actinocin(9to1) = Cc1c2oc3c(C)ccc(C(=O)[*:1])c3nc-2c(C(=O)[*:2])c(N)c1=O; NMeV = CN[C@H](C(=O)O)C(C)C; Sar = CNCC(=O)O

What was measured:
HepG2 cells = experiment: Cytotoxicity in mammalian HepG2 cell line; settings: for % Max response: HepG2
[1] = system: P. falciparum strain Dd2 gametocytes; experiment: alamarBlue gametocyte viability assay, strain Dd2
[2] = system: P. falciparum strain HB3 gametocytes; experiment: alamarBlue gametocyte viability assay, strain HB3
[3] = system: P. falciparum strain 3D7 gametocytes; experiment: alamarBlue gametocyte viability assay, strain 3D7
Plasmodium berghei ANKA = experiment: Malaria mouse model of gametocyte transmission to mosquitoes (oocyst count); assay type: in vivo; settings: mice, Anopheles stephensi
[4] = system: Asexual parasites of P. falciparum strain 3D7; experiment: SYBR Green viability assay on asexual parasites; assay type: cell-based, Plasmodium falciparum; settings: read-out: IC50 in viability assay using asexual parasites
Dd2 asexual parasites = settings: compared to 3D7; ref [27]; cited from earlier work
[5] = Table 2, Inactive = no significant activity at highest tested concentration (46 μM)
[6] = Table 4, Inactive = no significant activity at highest tested concentration (46 μM)
[7] = read-out: Dd2-IC50, Table 3, 11 concentrations, 1:3 dilution, three times
[8] = read-out: HB3-IC50, Table 3, 11 concentrations, 1:3 dilution, three times
[9] = read-out: 3D7-IC50, Table 3, 11 concentrations, 1:3 dilution, three times
[10] = read-out: Gametocyte IC50, mean of at least 3 independent experiments, P. falciparum 3D7 gametocyte
[11] = Plasmodium falciparum, DD2, read-out: IC50 against Dd2 gametocytes
[12] = Plasmodium falciparum, 3D7, read-out: 3D7-IC50
[13] = read-out: IC50 (μM) in HepG2, Table 2, Inactive = no significant activity at highest tested concentration (46 μM)
[14] = read-out: IC50 (μM) in HepG2 cells, Table 4, Inactive = no significant activity at highest tested concentration (46 μM)
[15] = Plasmodium falciparum, HB3, read-out: HB3-IC50

Row | IC50 [2, 8] [nM] | IC50 [3, 9] [nM] | IC50 [3, 10] [nM] | Molecule | % Max response (HepG2 cells; Table 2) [%] | IC50 (μM) in HepG2 (HepG2 cells; [5]) | % Max response (HepG2 cells; Table 4) [%] | IC50 (μM) in HepG2 cells (HepG2 cells; [6]) | IC50 [1, 7] [nM] | IC50 (HepG2 cells; [13]) [µM] | IC50 (HepG2 cells; [14]) [µM] | other results
1 | 235 | 300 | 345 | C=CC1CN2CCC1CC2C(O)c1ccnc2ccc(OC)cc12.C=CC1CN2CCC1CC2C(O)c1ccnc2ccc(OC)cc12.O=S(=O)(O)O (stereo not shown) [Quinine hemisulfate] | 2 | Inactive | 2 | Inactive | 83 | – | – | –
2 | 1480 | 743 | 743 | CCN(CCO)CCCOc1ccc2c(Nc3cc(CC(=O)Nc4cccc(F)c4)[nH]n3)ncnc2c1 [AZD-1152-HQPA] | 11 | Inactive | 11 | Inactive | 1480 | – | – | –
3 | – | – | – | Cc1[nH]c2ccccc2c1CCNCc1ccc(/C=C/C(=O)NO)cc1 [Panobinostat] | – | – | −74 | – | – | – | – | IC50 (HepG2 cells; Homo sapiens, HepG2, read-out: IC50 (μM) in HepG2 cells): 0.372 µM; IC50 [1, 11]: 148 nM; times more potent against Dd2 compared to 3D7 ([1]; gametocytes): 6.3 times; IC50 ([2]; Plasmodium falciparum, HB3, read-out: IC50 against HB3 gametocytes): 118 nM; fold more potent against HB3 compared to 3D7 ([2]; gametocytes): 7.9 fold; IC50 [3, 12]: 900 nM
4 | – | – | – | CN(C)c1ccc2nc3ccc(=[N+](C)C)cc-3sc2c1 [Methylene blue] | – | – | −20 | Inactive | – | – | – | IC50 ([1]; Plasmodium falciparum, DD2, read-out: Dd2-IC50, Table 3, 11 concentrations, 1:3 dilution, three times): 526 nM; IC50 [1, 11]: 526 nM; IC50 [2, 15]: 935 nM; IC50 [3, 12]: 300 nM
5 | 662 | 743 | 743 | CC1(C)OC2=C(C(=O)c3ccccc3C2=O)[C@H](NCc2ccccc2)[C@@H]1O [CAY10581] | −86 | – | −86 | – | 2350 | 17.1 | 17.1 | –
6 | – | – | – | CCN(CC)CCCC(C)Nc1ccnc2cc(Cl)ccc12 (stereo not shown) [chloroquine] | – | – | – | – | – | – | – | reduction of potency against Dd2 gametocytes compared to 3D7 [1]: 3.7 fold; fold less potent against Dd2 asexual parasites (Dd2 asexual parasites): 10 fold
7 | 332 | 935 | 935 | COc1ncc(-c2ccc3nccc(-c4ccnnc4)c3c2)cc1NS(=O)(=O)c1ccc(F)cc1F [GSK-458] | 33 | Inactive | 33 | Inactive | 1480 | – | – | –
8 | 1330 | 300 | 372 | CC1=C(CO)C(=O)O[C@@H]([C@@H](C)[C@H]2CC[C@H]3[C@@H]4C[C@H]5O[C@]56[C@@H](O)C=CC(=O)[C@]6(C)[C@H]4CC[C@]23C)C1 [Withaferin A] | −80 | – | −80 | – | 372 | 9.35 | 9.35 | –
9 | – | – | – | Cc1c2oc3c(C)ccc(C(=O)N[C@@H]4C(=O)N[C@H](C(C)C)C(=O)N5CCC[C@H]5C(=O)N(C)CC(=O)N(C)[C@@H](C(C)C)C(=O)O[C@@H]4C)c3nc-2c(C(=O)N[C@@H]2C(=O)N[C@H](C(C)C)C(=O)N3CCC[C@H]3C(=O)N(C)CC(=O)N(C)[C@@H](C(C)C)C(=O)O[C@@H]2C)c(N)c1=O [Dactinomycin] (I: T[dV]P[Sar][NMeV] / II: T[dV]P[Sar][NMeV]; ester I:1-I:C, II:1-II:C; linker I:N-II:N via Actinocin(9to1)) | – | Inactive | – | Inactive | – | – | – | Emax (HepG2 cells; Homo sapiens, HepG2, read-out: % Max response): 1%; IC50 ([1]; Plasmodium falciparum, DD2, read-out: Dd2-IC50): 33 nM; IC50 [2, 15]: 19 nM; IC50 ([3]; Plasmodium falciparum, 3D7, read-out: Gametocyte IC50): 15 nM

Row | Molecule | IC50 [2, 8] [nM] | IC50 [3, 9] [nM] | IC50 [3, 10] [nM] | % Max response (HepG2 cells; Table 2) [%] | IC50 (μM) in HepG2 (HepG2 cells; [5]) | % Max response (HepG2 cells; Table 4) [%] | IC50 (μM) in HepG2 cells (HepG2 cells; [6]) | IC50 [1, 7] [nM] | IC50 (HepG2 cells; [13]) [µM] | IC50 (HepG2 cells; [14]) [µM] | other results
10 | Zinc pyrithione | 59 | – | 93 | −99 | – | −99 | – | 59 | 2.15 | 2.15 | –
11 | Nc1ccc(-c2ccc3ncc4ccc(=O)n(-c5cccc(C(F)(F)F)c5)c4c3c2)cn1 [Torin 2] | 15 | – | 8 | −46 | – | −46 | – | 12 | 9.35 | 9.35 | cytotoxicity in HepG2 cells (HepG2 cells; at the highest tested concentration (46 μM)): partial cytotoxicity; oocyst production in mosquitoes (Plasmodium berghei ANKA; single 4 mg/kg dose i.v.): almost completely eliminated; oocyst production in mosquitoes (Plasmodium berghei ANKA; single dose of 2 mg/kg i.v.): significantly reduced; oocyst production in mosquitoes (Plasmodium berghei ANKA; two 4 mg/kg doses i.v.): completely blocked; IC50 [4]: 2.75 nM
12 | CC(=O)OC[C@H]1O[C@@H]([S-])[C@H](OC(C)=O)[C@@H](OC(C)=O)[C@@H]1OC(C)=O.CCP(CC)CC.[Au+] [Auranofin] | 1050 | 935 | 935 | −98 | – | −98 | – | 1180 | 9.35 | 9.35 | –
